For test [1], the system named is adenylate cyclase (AC). Description: Activation of adenylate cyclase (AC) in rat cerebral cortex synaptolemma, cAMP produced. It is filed as biochemical. As to conditions: for Amount of cAMP produced: X ± SD; for Activation of AC (in words): rat cerebral cortex synaptolemma. How it is done:
3.1 Effect on Activities of Adenylate Cyclase (AC) in Rat Cerebral Cortex:
Male Wistar rats weighed 200±20 g are sacrificed by decollation, and cerebral cortex is separated. Synaptolemma is extracted at 4° C. according to the method as described in literature (Rasenick M M et al, Pro. Natl. Acad. Sci. USA, 1980; 77:4628) and suspended in buffer solution, so that a protein concentration of 3˜5 mg/ml is reached. The synaptolemma has to be incubated in advance with the test medicine, as adenylate cyclase (AC) is located on it. The experiment is carried out as follows: portions of 100 μl reaction solution containing certain concentration of test medicine and 15 mmol/L HEPES, pH=7.5, 5 mmol/L MgCl2, 1 mmol/L EGTA, […], 60 mmol/L NaCl, 1 mmol/L aminophylline, 0.5 mg/ml phosphocreatine and 0.14 mg/ml phosphocreatine kinase are respectively dispensed into reaction tubes, followed by addition of 20 μg synaptolemma to each tube. Then, the tubes are immediately put into a water-bath at 30° C. to react for 10 minutes, which reaction is linear during the first 20 minutes. After that, all the reaction tubes are immediately transferred into boiling water and deposited for 3 minutes to terminate the reaction. The amount of cAMP thus produced is measured in an ice-bath environment with cAMP kit, the total reaction volume is 130 μL. The measure is carried out according to the instruction of the kit: various reagents are added and, after the reaction finishes, the tubes are centrifugated at 4000 rpm for 7 minutes. 120 μl supernatant is then pipetted into the measure cup, added afterwards with 1.5 ml anhydrous alcohol, after shaken up, 3.5 ml of scintillation solution is added. Then, the cups are sealed and shaken up, and are left overnight. The values of […] of all samples are determined then by Wallac 1409 liquid scintillation counter. The amount of cAMP produced can be calculated according to the standard curve and CPM. The results are statistically analyzed by ANOVA, and Dunnett's T test is made for inter-group comparison.

Test [2] has as its system PC-12 cells damaged by corticosterone. Description: Protection of PC-12 cells damaged by corticosterone (MTT). As to conditions: for Absorbance (A): 10^−4 mol/L corticosterone, 48 h, MTT, 570 nm; for Increase of A (%): vs damaged control. It is filed as cell-based, rat. As for the experimental part: 3.2. Protection Effect of Compound of Formula I on PC-12 Cells Damaged by Corticosterone.
PC-12 cells are diluted into a suspension (2×10^5 cells/ml) with DMEM culture solution containing 5% calf serum and 5% horse serum, and then are transplanted into 96-well plates pretreated with polylysine, and cultivated under conditions of 37° C. and 5% CO2 for 2˜3 days. Cells are to grow all over the wells bottom before test. The culture solution is then pipetted away and serum-free DMEM is added containing certain concentration of test medicine and 10^−4 mol/L corticosterone, 10 μl of 5 mg/ml MTT is added 48 hours later to each well, shaking up slightly and, 4 hours later, 100 μl of 10% SDS is added to each well, again shaking up slightly. The plates are then left in the incubator overnight at 37° C.(about 8˜12 hours). After all the dark-blue crystals are dissolved, shaking up slightly and absorbance (A) of each sample at 570 nm is read using microplate reader.

In test [3] the test system is mice. Description: Forced swimming test. The test is classed as in vivo. To be noted: for Duration of immobility: abdominal administration, last 4 of 6 minutes; for immobility time: oral. How it is done:
(1) The test is carried out according to literature (Arch Int. Pharmacodn. Ther, 1977, 229(2): 327). 30 minutes after abdominal injection or 60 minutes after oral administration, the mice are put into an open glass box (19 cm high and 12 cm of diameter). Water inside the glass box is 8 cm in depth and 22˜23° C. in temperature. The mice are put into the water for 6 minutes and observed by Vidio movement analyzer, the accumulated immobility time of the mice during the last 4 minutes and their activity are analyzed identically as above.

Test [4] deals with T1, 5HT1A receptor (Rattus norvegicus, UniProt P19327).
T1 construct: 50 μl of 1:5 suspension of rat hippocampal membrane receptor; from tissue; host or cells: rat hippocampal membranes
T1 sequence (P19327 1-422): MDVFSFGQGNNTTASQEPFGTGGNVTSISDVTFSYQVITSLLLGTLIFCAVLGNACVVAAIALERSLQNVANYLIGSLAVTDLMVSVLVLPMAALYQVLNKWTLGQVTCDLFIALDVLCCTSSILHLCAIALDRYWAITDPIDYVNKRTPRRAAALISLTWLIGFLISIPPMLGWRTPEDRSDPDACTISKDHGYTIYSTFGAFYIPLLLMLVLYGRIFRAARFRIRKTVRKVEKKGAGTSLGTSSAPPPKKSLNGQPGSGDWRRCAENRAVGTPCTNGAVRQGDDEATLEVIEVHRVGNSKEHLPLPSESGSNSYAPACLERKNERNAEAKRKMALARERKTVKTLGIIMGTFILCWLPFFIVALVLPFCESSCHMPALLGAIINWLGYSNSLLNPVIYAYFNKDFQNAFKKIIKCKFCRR
Description: 5HT1A receptor test, competition with 3H-8-OH-DPAT on rat hippocampal membrane receptor. The test is classed as binding. How it is done: 20 μl of ^3H-8-OH-DPAT ([…]) and 20 μl of sample solutions of different concentrations are added into 50 μl of 1:5 suspension of rat hippocampal membrane receptor, followed by addition of buffer solution to make up to final volume of 200 μL. Then the above-mentioned suspension is shaken up and incubated in a water-bath at 25° C. for 30 minutes. After quick filtration by suction and washing the membrane receptors, radioactivity value is read by liquid scintillation counter. 20 μl of 5HT […] sulfate (1 mmol) solution is used instead to determine the non-specific conjugation. Buspirone, a partially activating agent of 5HT1A receptor, is used as the positive control. The competitive inhibition rate of the sample to ^3H-8-OH-DPAT is calculated according to the radioactivity value.

This is an account of results in patent publication US7049301B2, “Quercetin derivatives and their medical usages” (Academy of Military Medical Sciences Institute of …, priority 2001, dated 2006).

One may read the IC50 as the concentration at which inhibition is half-maximal.

Molecules are shown by their SMILES. Like-named read-outs stand apart in the source and are kept apart here.

For `CC1OC(OC[C@H]2O[C@@H](Oc3c(-c4ccc(O)c(O)c4)oc4cc(O)cc(O)c4c3=O)[C@H](O[C@@H]3OC[C@](O)(CO)[C@H]3O)[C@@H](O)[C@@H]2O)C(O)C(O)C1O` (stereo in doubt) [Compound of formula I, quercetin-3-O-β-D-apiofuranosyl-(1→2)-[α-D-rhamnopyranosyl-(1→6)]-β-D-glucopyranoside], the “Amount of cAMP produced” value in test [1] (13.5 μM (0.01 mg/ml)) amounted to 23.27 ± 4.95 pmol/mg protein/minute; in test [1] (13.5 μM (0.01 mg/ml), listed as compound of formula I) it was 23.27±4.95 pmol/mg protein/minute; in test [1] (40.5 μM), 4.75 ± 6.33 pmol/mg protein/minute; in test [1] (135 μM), 43.42 pmol/mg protein/minute; in test [1] (405 μM) it was 68.34 pmol/mg protein/minute. Besides, in test [1] (404 μM (0.3 mg/ml)), the “AC activation relative to same doses of imipramine and buspirone” value was 2˜3 times. The “Activation effect on AC (cAMP produced)” value in test [1] (404 μM (0.3 mg/ml)) is given as 68.34±10.45 pmol/mg protein/minute. Further, in test [2], the “Protection effect on PC-12 cells damaged by corticosterone (in words)” value was “strong protection effect”. Besides, the “Absorbance (A)” value amounted to 0.74 ± 0.14 in test [2] (4.04 μmol·L^−1); 0.84 ± 0.08 in test [2] (14.38 μmol·L^−1); 0.86 ± 0.10 in test [2] (40.43 μmol·L^−1); 0.77 ± 0.11 in test [2] (134.77 μmol·L^−1); 0.61 ± 0.16 in test [2] (404.31 μmol·L^−1). Further, the “Increase of A (%)” value is 208.3% in test [2] (4.04 μmol·L^−1); 250.0% in test [2] (14.38 μmol·L^−1); 258.3% in test [2] (40.43 μmol·L^−1); 220.8% in test [2] (134.77 μmol·L^−1); 154.2% in test [2] (404.31 μmol·L^−1). In addition, the Duration of immobility in test [3] (0.31 mg/kg) is 148.69 ± 30.81 s; in test [3] (0.31 mg/kg, listed as compound of formula I) it was “shorten the immobility time”; in test [3] (1.25 mg/kg) it was 149.94 ± 34.87 s; in test [3] (5.00 mg/kg), 134.38 ± 40.99 s. Moreover, the immobility time was 95.2 ± 47.4 s in test [3] (3.75 mg/kg); 62.2 ± 45.9 s in test [3] (7.5 mg/kg); “shorten the immobility time” in test [3] (7.5 mg/kg, listed as compound of formula I); 53.6 ± 50.8 s in test [3] (15 mg/kg); 111.5 ± 52.9 s in test [3] (30 mg/kg). For the same compound, the IC50 in test [4] is roughly 50 pM.
Consider `CCOc1cc(OCC)c2c(=O)c(OC3OC(COC4OC(C)C(O)C(O)C4O)C(O)C(O)C3OC3OCC(O)(CO)C3O)c(-c3ccc(OCC)c(OCC)c3)oc2c1` [5,7,3′,4′,-tetraethoxyl flavonol-3-O-β-D-apiofuranosyl-(1→2)-[α-D-rhamnopyranosyl-(1→6)]-β-D-glucopyranoside], for which the IC50 in test [4] (competitive inhibition of 3H-8-OH-DPAT, rat hippocampal membrane, 25° C., 30 minutes, read-out: IC50) was roughly 200 pM.
On to `CN(C)CCCN1c2ccccc2CCc2ccccc21` [imipramine], for which the “Amount of cAMP produced” value in test [1] (25 μM) was determined as 15.07 ± 4.91 pmol/mg protein/minute; in test [1] (100 μM), 18.53 ± 3.2 pmol/mg protein/minute; in test [1] (400 μM) it was 30.32 pmol/mg protein/minute; in test [1] (1 mM), 79.79 pmol/mg protein/minute. The “Activation of AC (in words)” value in test [1] was “dose-dependently activate AC”.
As to `O=C1CC2(CCCC2)CC(=O)N1CCCCN1CCN(c2ncccn2)CC1` [buspirone], the “Amount of cAMP produced” value in test [1] (25 μM) worked out at 19.52 ± 5.46 pmol/mg protein/minute; in test [1] (100 μM), 19.71 ± 5.57 pmol/mg protein/minute; in test [1] (400 μM), 24.63 pmol/mg protein/minute; in test [1] (1 mM), 33.00 pmol/mg protein/minute. Moreover, the “Activation of AC (in words)” value in test [1] is “dose-dependently activate AC”.
